{"source": "patent US8748569B2", "about": "“Peptide amphiphiles and methods to electrostatically control bioactivity of the ikvav peptide epitope” (Northwestern University, priority 2011, dated 2014)", "key": {"[1]": {"tested_on": "P19 embryonal carcinoma cells differentiated into neurons", "assay": "Neurite outgrowth of neurons cultured in peptide amphiphile gels", "type": "cell-based, murine", "settings": "gels containing half the concentration (0.1 wt %) of the PA; compared to gels of PA 1"}, "[2]": {"assay": "Small-angle X-ray scattering (SAXS) of PA nanostructures", "type": "physicochemical", "settings": "for Total SAXS Cross-section dimensions: diameter", "description": "Small-angle X-ray scattering (SAXS) measurements were obtained using a Rigaku S-MAX 3000 High Brilliance SAXS System. Cu Ka radiation was generated by Osmic MicroMaxs, an integrated microfocus sealed tube generator (powered at 45 kV and 0.9 mA) with Osmict Confocal Max-Fluxs optics, 3 pinholes collimation. A 20×20 cm^2 2D position-sensitive wire detector (1024×1024 pixels) was positioned 150 cm behind the examined samples, resulting in a q-range of 0.07-2.8 nm^−1. The wave vector defined as, q=(4π/λ)sin(2θ/2), where 2y is the scattering angle and λ is wavelength of Cu Kα radiation (1.542 Å). A total of 10^6 or more counts were collected in order to obtain a high signal to noise ratio. Samples were measured for 3600 s, and then background subtracted from data collected using a capillary containing the isotonic salt solution. The 2D SAXS patterns were azimuthally averaged and the background subtracted using standard methods. Data analysis was based on fitting the scattering curve to an appropriate model by a least-squares method using software provided by NIST (NIST SANS analysis version 7.0 on IGOR) ^21 The table below lists the models used to fit the SAXS curves. The Total SAXS cross-sectional dimensions correspond to length and width for molecule 2, and diameter for 3-5."}, "[3]": {"assay": "Transmission electron microscopy (cryoTEM / conventional TEM) of PA nanostructures", "type": "physicochemical", "description": "The nanostructure of each PA molecule under physiologically relevant conditions was investigated using electron microscopy. Samples for vitreous ice cryo-transmission electron microscopy (cryoTEM) were prepared from a 0.1-0.5 wt % PA solution dissolved in 150 mM NaCl, 3 mM KCl, or in a 150 mM NaCl, 3 mM KCl, and 5 mM CaCl2 solution, both at a pH of 7.2-7.4. The solutions were then heated to 80° C. in a water bath for 1 hr, and then slowly cooled to room temperature over the course of 8 hr. 10 μL of each solution was pipetted onto a plasma cleaned holey carbon TEM grid (Electron Microscopy Sciences), blotted and plunged into liquid ethane using a FEI Vitrobot Mark IV. Samples were kept at −180° C. and imaged using a JEOL 1230 TEM operating at 100 kV.\nSamples for conventional TEM microscopy were prepared from 0.1 wt % PA solution dissolved in ultrapure water and adjusted to a pH of 7.2-7.4 by adding NaOH. The solutions were then heated to 80° C. in a water bath for 1 hr, and then slowly cooled to room temperature over the course of 8 hr, unless noted otherwise. 2 μL of a 0.1 wt % PA solution was pipetted onto a Carbon Formvar grid (Electron Microscopy Sciences) and allowed to dry. The samples were then negatively stained by pipetting 2 uL of a 2 wt % Uranyl acetate solution and allowed to dry. Each sample was imaged using a JEOL 1230 TEM operating at 100 kV. The average diameter of nanofibers was obtained via measuring 40-100 different fibers from solutions and grids prepared throughout multiple days.\nThe assembly of each PA molecule under physiologically relevant conditions was examined using cryogenic electron microscopy (cryoTEM), as described in Example 4. PAs were dissolved in isotonic salt solutions resembling extracellular fluid (150 mM NaCl, 3 mM KCl, pH 7.4). […] In order to compare molecular simulation diameters with those observed from TEM, molecular simulation values for the other four PA molecules were scaled by the same amount, 87%."}, "[4]": {"assay": "Transmission electron microscopy (cryoTEM / conventional TEM) of PA nanostructures", "type": "physicochemical", "settings": "1 wt % solution drop-cast and dried onto a TEM grid"}, "[5]": {"tested_on": "P19 embryonal carcinoma cells differentiated into neurons", "assay": "Neurite outgrowth of neurons cultured in peptide amphiphile gels", "type": "cell-based, murine", "settings": "compared to gels of PA 1; for promotion of neurite outgrowth (in words): gels containing 0.2 wt % of the PA with 0.8 wt % PA 1", "description": "P19 embryonal carcinoma cells were cultured in media composed of α-MEM (Gibco), 7.5% newborn calf serum (Lonza), 2.5% fetal bovine serum (Gibco), penicillin (100 units/ml) and streptomycin (100 ug/ml) (Invitrogen). Neuronal differentiation was induced by plating P19 cells in non-treated Petri dishes in media containing 5 uM retinoic acid (Sigma) for 4 days. Neurospheres were collected from the Petri dish and allowed to settle in a centrifuge tube for 10 minutes. Media was removed, then trypsin/EDTA solution was added and the tube was gently agitated for 5 minutes. Cells were dissociated by triturating the neurospheres, then media was added to inactivate the trypsin. Cells were centrifuged and the pellet resuspended in media to a concentration of 25,000 cells/ul. Cells were mixed (1:4) with PA solution. The PA/cell solution was pipetted into coverslip-bottom culture dishes (MatTek) and covered with gelling solution (150 mM NaCl, 3 mM KCl, 25 mM CaCl2) for 1 minute to induce gelation, then rinsed with a 150 mM NaCl, 3 mM KCl solution, then media was added to the dish. Cells were cultured for 2 days.\nIn order to assay neurite outgrowth, gels were rinsed with PBS, then fixed in 4% paraformaldehyde for 30 minutes at room temperature. Gels were rinsed 3× with PBS followed by addition of 10% normal goat serum blocking solution (Invitrogen) with 0.1% Triton X-100 added. Gels were incubated overnight with primary antibody (rabbit anti-β-III-tubulin IgG, 1/2000, Covance) in blocking solution. Gels were rinsed 3× with PBS, then blocked for 30 minutes with blocking solution. Next, gels were incubated with secondary antibody (Alexa Fluor 488 goat anti-rabbit IgG, 1/100, Invitrogen) in blocking solution for 1 hour. After one PBS rinse, nuclei were stained with a 5 ug/ml solution of Hoecsht 34580 (Invitrogen) in PBS for 15 minutes, then rinsed 4 times. Gels were imaged on a Zeiss LSM 510 META laser scanning confocal microscope, individually acquiring z-stacks of randomly chosen cells with neurites. Two gels were imaged per condition for each experiment. Experiments were done in triplicate. For each condition, at least 50 neurons with neurites were imaged. Using the Simple Neurite Tracer plug-in for ImageJ software, neurites were traced and measured. A one-way ANOVA, followed by paired t-tests, were performed to determine significance between conditions. Researchers were blinded to the conditions during imaging and tracing.\nPluripotent murine P19 embryonal carcinoma cells were differentiated into neurons. These neurons were then homogeneously distributed into isotonic salt solutions composed of 0.8 wt % PA 1 mixed with 0.2 wt % 2-5 and gelled with 25 mM CaCl2 (FIG. 3a,b). Mixtures of 1 with 2-5 were used in biological experiments in order to form robust gel matrices capable of supporting cells in culture. After two days of culture, the cells were fixed and the neurites and nuclei were fluorescently labelled green and blue using β-III-tubulin immunostaining and Hoechst staining, respectively, then imaged by confocal microscopy (FIG. 14). Neurites were traced and measured, and average neurite lengths were calculated (FIG. 15)."}, "Circular dichroism (CD)": {"assay": "Circular dichroism (CD)", "type": "physicochemical", "description": "CD was done using a model J-715 Jasco Circular Dichroism Spectrometer. 1 wt % PA solutions were prepared in either a 150 mM NaCl, 3 mM KCl solution or a 150 mM NaCl, 3 mM KCl, and 5 mM CaCl2 solution, both at a pH of 7.2-7.4, as determined via pH paper. The solutions were then heated to 80° C. in a water bath for 1 hr, and then slowly cooled to room temperature over the course of 8 hr. The samples were measured through 0.01 mm quartz plates. Each trace represents the average of three scans. The mean residue ellipticity was corrected for purity of the lyophilized powder from peptide content analysis."}, "[6]": {"assay": "Solubility in physiologically relevant monovalent salt solution", "type": "physicochemical", "settings": "monovalent salt solution composed of 150 mM NaCl and 3 mM KCl"}, "Dynamic light scattering": {"assay": "Dynamic light scattering", "type": "physicochemical"}, "[7]": {"settings": "(Core) Shell Cylinder SAXS model"}}, "note": "Peptide text beside a SMILES is read from it. * marks the point of attachment. Palmitoyl = CCCCCCCCCCCCCCCC(=O)*", "data": [{"compound": "CCCCCCCCCCCCCCCC(=O)N[C@H](C(=O)N[C@H](C(=O)N[C@@H](C)C(=O)N[C@@H](C)C(=O)N[C@@H](CCC(=O)O)C(=O)N[C@@H](CCC(=O)O)C(=O)N[C@@H](CCC(=O)O)C(=O)N[C@@H](CCC(=O)O)C(=O)NCC(=O)N[C@H](C(=O)N[C@@H](CCCCN)C(=O)N[C@H](C(=O)N[C@@H](C)C(=O)N[C@H](C(=O)O)C(C)C)C(C)C)[C@@H](C)CC)C(C)C)C(C)C", "note": "[PA 5, CH3(CH2)14C(O)-VVAAEEEEGIKVAV-OH] (Palmitoyl-VVAAEEEEGIKVAV-OH)", "values": [{"measurement": "increase in neurite length", "setting": "[1]", "value": "57±14", "unit": "%"}, {"measurement": "Core Diameter", "setting": "[2]; [7]", "value": 1.2, "unit": "nm"}, {"measurement": "Shell Thickness", "setting": "[2]; [7]", "value": "2.0 ± 0.6", "unit": "nm"}, {"measurement": "Total SAXS Cross-section dimensions", "setting": "[2]; [7]", "value": "6.4 ± 1.8", "unit": "nm"}, {"measurement": "Core Diameter", "setting": "[2]; (Core) Shell Sphere SAXS model", "value": 1.46, "unit": "nm"}, {"measurement": "Shell Thickness", "setting": "[2]; (Core) Shell Sphere SAXS model", "value": "1.4 ± 0.6", "unit": "nm"}, {"measurement": "Total SAXS Cross-section dimensions", "setting": "[2]; (Core) Shell Sphere SAXS model", "value": "5.9±1.2", "unit": "nm"}, {"measurement": "Total SAXS Cross-section dimensions", "setting": "[2]; (Core) Shell Sphere SAXS model, listed as 5", "value": "5.9±1.2", "unit": "nm"}, {"measurement": "diameter of cylindrical structures", "setting": "[3]; cryoTEM, isotonic salt solution with 5 mM CaCl2 added", "value": "9.9±1.1", "unit": "nm"}, {"measurement": "diameter of spherical micelles", "setting": "[3]; cryoTEM, without CaCl2", "value": "5.3±1.1", "unit": "nm"}, {"measurement": "OBSERVED FIBER DIAMETER", "setting": "[3]; from TEM", "value": "108 ± 15", "unit": "Å"}, {"measurement": "ASSEMBLED MORPHOLOGY", "setting": "[3]; observed morphologies from TEM", "value": "Cylindrical fiber"}, {"measurement": "average diameter of cylindrical nanofibers", "setting": "[4]", "value": "10.8±1.5", "unit": "nm"}, {"measurement": "promotion of neurite outgrowth (in words)", "setting": "[5]", "value": "promoted neurite outgrowth"}, {"measurement": "promotion of neurite outgrowth (in words)", "setting": "[5]; listed as SEQ ID NO. 7", "value": "promote neurite outgrowth"}, {"measurement": "increase in neurite outgrowth", "setting": "[5]; gels of 0.8 wt % PA 1 mixed with 0.2 wt % of the PA, gelled with 25 mM CaCl2, 2 days culture", "value": "88±13", "unit": "%"}, {"measurement": "peptide secondary structure from CD spectrum", "setting": "Circular dichroism (CD); 150 mM NaCl, 3 mM KCl with 5 mM CaCl2 added", "value": "presence of β-sheet structure"}, {"measurement": "peptide secondary structure from CD spectrum", "setting": "Circular dichroism (CD); 1 wt % in 150 mM NaCl, 3 mM KCl", "value": "random coil peptide structure"}, {"measurement": "solubility", "setting": "[6]", "value": "soluble"}, {"measurement": "hydrodynamic radius of spherical micelles", "setting": "Dynamic light scattering", "value": 8.6, "unit": "nm"}]}]}
